In PubChem BioAssay (NCI):
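Five compound concentrations were applied to cells in 96-well plates for 48 hours; endpoints were derived by simple linear interpolation of the resulting dose-response curve. GI50: concentration for 50% inhibition of growth. TGI: concentration producing complete growth inhibition.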

What was measured:
Assay in all cases: DTP human tumour cell line panel, 48 h
TK-10 renal = test system: TK-10 renal
SF-295 CNS = test system: SF-295 CNS
NCI-H522 lung = test system: NCI-H522 lung
CAKI-1 renal = test system: CAKI-1 renal
SR leukemia = test system: SR leukemia
A549 NSCLC = test system: A549 NSCLC
OVCAR-5 ovarian = test system: OVCAR-5 ovarian
A498 renal = test system: A498 renal
UO-31 renal = test system: UO-31 renal
SK-OV-3 ovarian = test system: SK-OV-3 ovarian
HOP-92 NSCLC = test system: HOP-92 NSCLC
HS 578T breast = test system: HS 578T breast
NCI/ADR-RES ovarian = test system: NCI/ADR-RES ovarian
HOP-62 NSCLC = test system: HOP-62 NSCLC
MDA-MB-231 breast = test system: MDA-MB-231 breast
UACC-62 melanoma = test system: UACC-62 melanoma
MALME-3M melanoma = test system: MALME-3M melanoma
MOLT-4 leukemia = test system: MOLT-4 leukemia
SNB-75 CNS = test system: SNB-75 CNS
T-47D breast = test system: T-47D breast
ACHN renal = test system: ACHN renal
NCI-H226 lung = test system: NCI-H226 lung
SK-MEL-5 melanoma = test system: SK-MEL-5 melanoma
DU-145 prostate = test system: DU-145 prostate
KM12 colon = test system: KM12 colon
SK-MEL-2 melanoma = test system: SK-MEL-2 melanoma
K-562 leukemia = test system: K-562 leukemia
RXF 393 renal = test system: RXF 393 renal
CCRF-CEM leukemia = test system: CCRF-CEM leukemia
HCT-15 colon = test system: HCT-15 colon
SNB-19 CNS = test system: SNB-19 CNS
MDA-MB-435 = test system: MDA-MB-435
HL-60(TB) leukemia = test system: HL-60(TB) leukemia
HCC-2998 colon = test system: HCC-2998 colon
COLO 205 colon = test system: COLO 205 colon
SF-539 CNS = test system: SF-539 CNS
OVCAR-3 ovarian = test system: OVCAR-3 ovarian
SF-268 CNS = test system: SF-268 CNS
MCF7 breast = test system: MCF7 breast
EKVX NSCLC = test system: EKVX NSCLC
OVCAR-8 ovarian = test system: OVCAR-8 ovarian
U251 CNS = test system: U251 CNS
RPMI-8226 leukemia = test system: RPMI-8226 leukemia
PC-3 prostate = test system: PC-3 prostate
IGROV1 ovarian = test system: IGROV1 ovarian
UACC-257 melanoma = test system: UACC-257 melanoma
OVCAR-4 ovarian = test system: OVCAR-4 ovarian
HCT-116 colon = test system: HCT-116 colon
SN12C renal = test system: SN12C renal
786-0 renal = test system: 786-0 renal
HT29 colon = test system: HT29 colon
NCI-H23 lung = test system: NCI-H23 lung
SK-MEL-28 melanoma = test system: SK-MEL-28 melanoma
M14 melanoma = test system: M14 melanoma
LOX IMVI melanoma = test system: LOX IMVI melanoma
NCI-H460 lung = test system: NCI-H460 lung
SW-620 colon = test system: SW-620 colon

In the case of `S=c1sc2c(Cl)nc(-c3cccnc3)nc2n1-c1ccccc1`, the GI50 (TK-10 renal) is reported as over 100 µM, the TGI (TK-10 renal) is reported as over 100 µM and the GI50 (SF-295 CNS) is reported as over 100 µM. For the same molecule, the TGI (SF-295 CNS) was over 100 µM, the GI50 (NCI-H522 lung) was 1.54 µM and the TGI (NCI-H522 lung) was 3.1 µM. For the same molecule, the GI50 (CAKI-1 renal) was 1.67 µM, the TGI (CAKI-1 renal) was 3.14 µM and the GI50 (SR leukemia) was 0.556 µM. For the same molecule, the TGI (SR leukemia) was 4.68 µM, the GI50 (A549 NSCLC) was over 100 µM and the TGI (A549 NSCLC) was over 100 µM. For the same molecule, the GI50 (OVCAR-5 ovarian) was over 100 µM, the TGI (OVCAR-5 ovarian) was over 100 µM and the GI50 (A498 renal) was over 100 µM. For the same molecule, the TGI (A498 renal) was over 100 µM, the GI50 (UO-31 renal) was 1.64 µM and the TGI (UO-31 renal) was 3.33 µM. The GI50 (SK-OV-3 ovarian) was over 100 µM, the TGI (SK-OV-3 ovarian) was over 100 µM and the GI50 (HOP-92 NSCLC) was 3.18 µM. For the same molecule, the TGI (HOP-92 NSCLC) was 30.5 µM, the GI50 (HS 578T breast) was 4.09 µM and the TGI (HS 578T breast) was over 100 µM. It also gave a GI50 (NCI/ADR-RES ovarian) of 3.05 µM, a TGI (NCI/ADR-RES ovarian) of over 100 µM and a GI50 (HOP-62 NSCLC) of 3.27 µM. For the same molecule, the TGI (HOP-62 NSCLC) was over 100 µM.
Molecule `Cc1nc2ccccc2nc1N=Nc1ccccc1` has a GI50 (TK-10 renal) of 48.8 µM, a TGI (TK-10 renal) of over 100 µM and a GI50 (MDA-MB-231 breast) of 16.2 µM. The TGI (MDA-MB-231 breast) was 69.1 µM, the GI50 (UACC-62 melanoma) was 14.2 µM and the TGI (UACC-62 melanoma) was 35.2 µM. The GI50 (MALME-3M melanoma) was 20.8 µM, the TGI (MALME-3M melanoma) was 65.7 µM and the GI50 (MOLT-4 leukemia) was 14.9 µM. The TGI (MOLT-4 leukemia) was 43.2 µM, the GI50 (SNB-75 CNS) was 18.3 µM and the TGI (SNB-75 CNS) was over 100 µM. It also gave a GI50 (T-47D breast) of 10.1 µM, a TGI (T-47D breast) of 67.7 µM and a GI50 (ACHN renal) of 16.9 µM. It also gave a TGI (ACHN renal) of over 100 µM, a GI50 (NCI-H226 lung) of 24.6 µM and a TGI (NCI-H226 lung) of over 100 µM. For the same molecule, the GI50 (SF-295 CNS) was 6.38 µM, the TGI (SF-295 CNS) was over 100 µM and the GI50 (NCI-H522 lung) was 20.4 µM. For the same molecule, the TGI (NCI-H522 lung) was 63.1 µM, the GI50 (SK-MEL-5 melanoma) was 16 µM and the TGI (SK-MEL-5 melanoma) was 30.1 µM. It also gave a GI50 (DU-145 prostate) of 36.1 µM, a TGI (DU-145 prostate) of over 100 µM and a GI50 (KM12 colon) of 11.9 µM. It also gave a TGI (KM12 colon) of 93.5 µM, a GI50 (SK-MEL-2 melanoma) of 24 µM and a TGI (SK-MEL-2 melanoma) of 61.3 µM. For the same molecule, the GI50 (SR leukemia) was 19 µM, the TGI (SR leukemia) was over 100 µM and the GI50 (A549 NSCLC) was 37.3 µM. The TGI (A549 NSCLC) was over 100 µM, the GI50 (K-562 leukemia) was 25.7 µM and the TGI (K-562 leukemia) was over 100 µM. The GI50 (RXF 393 renal) was 23.4 µM, the TGI (RXF 393 renal) was over 100 µM and the GI50 (OVCAR-5 ovarian) was 75.7 µM. For the same molecule, the TGI (OVCAR-5 ovarian) was over 100 µM, the GI50 (CCRF-CEM leukemia) was 25 µM and the TGI (CCRF-CEM leukemia) was over 100 µM. The GI50 (HCT-15 colon) was 16.3 µM, the TGI (HCT-15 colon) was over 100 µM and the GI50 (SNB-19 CNS) was 50.3 µM. The TGI (SNB-19 CNS) was over 100 µM, the GI50 (MDA-MB-435) was 18.3 µM and the TGI (MDA-MB-435) was 48.8 µM. It also gave a GI50 (HL-60(TB) leukemia) of 20.6 µM, a TGI (HL-60(TB) leukemia) of 56.6 µM and a GI50 (HCC-2998 colon) of 37 µM. It also gave a TGI (HCC-2998 colon) of over 100 µM, a GI50 (COLO 205 colon) of 0.291 µM and a TGI (COLO 205 colon) of 1.91 µM. It also gave a GI50 (SF-539 CNS) of 27.9 µM, a TGI (SF-539 CNS) of over 100 µM and a GI50 (OVCAR-3 ovarian) of 12.9 µM. For the same molecule, the TGI (OVCAR-3 ovarian) was 82.1 µM, the GI50 (SF-268 CNS) was 22.7 µM and the TGI (SF-268 CNS) was over 100 µM. The GI50 (MCF7 breast) was 5.75 µM, the TGI (MCF7 breast) was over 100 µM and the GI50 (EKVX NSCLC) was 10.9 µM. The TGI (EKVX NSCLC) was over 100 µM, the GI50 (UO-31 renal) was 7.99 µM and the TGI (UO-31 renal) was over 100 µM. The GI50 (OVCAR-8 ovarian) was 22.4 µM, the TGI (OVCAR-8 ovarian) was over 100 µM and the GI50 (SK-OV-3 ovarian) was 34.9 µM. It also gave a TGI (SK-OV-3 ovarian) of over 100 µM, a GI50 (U251 CNS) of 35.9 µM and a TGI (U251 CNS) of over 100 µM. The GI50 (HOP-92 NSCLC) was 3.03 µM, the TGI (HOP-92 NSCLC) was 43.9 µM and the GI50 (RPMI-8226 leukemia) was 12.2 µM. The TGI (RPMI-8226 leukemia) was 42.8 µM, the GI50 (PC-3 prostate) was 6.57 µM and the TGI (PC-3 prostate) was 60.2 µM. For the same molecule, the GI50 (IGROV1 ovarian) was 9.58 µM, the TGI (IGROV1 ovarian) was over 100 µM and the GI50 (UACC-257 melanoma) was 25.2 µM. It also gave a TGI (UACC-257 melanoma) of 73.4 µM, a GI50 (OVCAR-4 ovarian) of 16.5 µM and a TGI (OVCAR-4 ovarian) of over 100 µM. The GI50 (HCT-116 colon) was 31.1 µM, the TGI (HCT-116 colon) was over 100 µM and the GI50 (SN12C renal) was 30 µM. The TGI (SN12C renal) was over 100 µM, the GI50 (786-0 renal) was 26.9 µM and the TGI (786-0 renal) was over 100 µM. For the same molecule, the GI50 (HT29 colon) was 0.193 µM, the TGI (HT29 colon) was 15.1 µM and the GI50 (NCI/ADR-RES ovarian) was 16 µM. It also gave a TGI (NCI/ADR-RES ovarian) of 57.6 µM, a GI50 (NCI-H23 lung) of 14.4 µM and a TGI (NCI-H23 lung) of 51.1 µM. The GI50 (SK-MEL-28 melanoma) was 26 µM, the TGI (SK-MEL-28 melanoma) was over 100 µM and the GI50 (HOP-62 NSCLC) was 28.5 µM. The TGI (HOP-62 NSCLC) was over 100 µM, the GI50 (M14 melanoma) was 17.7 µM and the TGI (M14 melanoma) was 44.8 µM. For the same molecule, the GI50 (LOX IMVI melanoma) was 23.3 µM and the TGI (LOX IMVI melanoma) was over 100 µM.
With `O=C(/C=C(\C(=O)c1cccs1)c1cccs1)c1ccc(C(=O)/C=C(\C(=O)c2cccs2)c2cccs2)cc1` the TGI (TK-10 renal) was over 100 µM, the TGI (MDA-MB-231 breast) was over 100 µM and the TGI (UACC-62 melanoma) was over 100 µM. It also gave a TGI (MOLT-4 leukemia) of over 100 µM, a TGI (SNB-75 CNS) of over 100 µM and a TGI (NCI-H460 lung) of over 100 µM. It also gave a TGI (T-47D breast) of over 100 µM, a TGI (ACHN renal) of over 100 µM and a TGI (NCI-H226 lung) of over 100 µM. The TGI (SF-295 CNS) was over 100 µM, the TGI (CAKI-1 renal) was over 100 µM and the TGI (SK-MEL-5 melanoma) was over 100 µM. The TGI (DU-145 prostate) was over 100 µM, the TGI (KM12 colon) was over 100 µM and the TGI (SK-MEL-2 melanoma) was over 100 µM. The TGI (SR leukemia) was over 100 µM, the TGI (A549 NSCLC) was over 100 µM and the TGI (K-562 leukemia) was over 100 µM. It also gave a TGI (RXF 393 renal) of over 100 µM, a TGI (CCRF-CEM leukemia) of over 100 µM and a TGI (HCT-15 colon) of over 100 µM. For the same molecule, the TGI (SNB-19 CNS) was over 100 µM, the TGI (MDA-MB-435) was over 100 µM and the TGI (HL-60(TB) leukemia) was over 100 µM. For the same molecule, the TGI (HCC-2998 colon) was over 100 µM, the TGI (COLO 205 colon) was over 100 µM and the TGI (SF-539 CNS) was over 100 µM. It also gave a TGI (SF-268 CNS) of over 100 µM, a TGI (MCF7 breast) of over 100 µM and a TGI (EKVX NSCLC) of over 100 µM. For the same molecule, the TGI (UO-31 renal) was over 100 µM, the TGI (OVCAR-8 ovarian) was over 100 µM and the TGI (SK-OV-3 ovarian) was over 100 µM. The TGI (U251 CNS) was over 100 µM, the TGI (RPMI-8226 leukemia) was over 100 µM and the TGI (PC-3 prostate) was over 100 µM. For the same molecule, the TGI (IGROV1 ovarian) was over 100 µM, the TGI (UACC-257 melanoma) was over 100 µM and the TGI (OVCAR-4 ovarian) was over 100 µM. The TGI (HCT-116 colon) was over 100 µM, the TGI (HS 578T breast) was over 100 µM and the TGI (SN12C renal) was over 100 µM. For the same molecule, the TGI (786-0 renal) was over 100 µM, the TGI (HT29 colon) was over 100 µM and the TGI (NCI/ADR-RES ovarian) was over 100 µM. The TGI (SK-MEL-28 melanoma) was over 100 µM, the TGI (HOP-62 NSCLC) was over 100 µM and the TGI (SW-620 colon) was over 100 µM. The TGI (M14 melanoma) was over 100 µM.
